Values quoted from earlier work in patent US10758479B2, “Galenical form for the administration of active ingredients by transmucous means” (priority 2006, dated 2020).

Assays:
[1] = nasal, per-mucous path

In the case of `CNS(=O)(=O)Cc1ccc2[nH]cc(CCN(C)C)c2c1` [Sumatriptan], the period of action (administered enterally) is listed as “about two” and the residual bioavailability (administered via the digestive tract) is listed as “less than 14 % of the administered dose”.

For `C[C@]12CC[C@@H]3c4ccc(O)cc4CC[C@H]3[C@@H]1CC[C@@H]2O` [estradiol], the mean bioavailability [1] is given as “less than 25 % of the administered dose”.

In the case of `CN(C)C(=O)C(CCN1CCC(O)(c2ccc(Cl)cc2)CC1)(c1ccccc1)c1ccccc1` [loperamide, Loperamide], the “portion of the effectively bioavailable dose” value (in the 2 mg administered by the digestive tract) is listed as at most 0.25 mg.
